Results: PubChem BioAssay (NCI)
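Dose response: 5 concentrations. Exposure: 48 h. Format: 96-well plates. Endpoint: linear interpolation; highest concentration if not reached. At the GI50, growth is halved. TGI is the concentration that stops growth completely.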

Tests used:
Assay in all cases: NCI anticancer screen, dose series, 48 h
ACHN renal = test system: ACHN renal
NCI/ADR-RES ovarian = test system: NCI/ADR-RES ovarian
HS 578T breast = test system: HS 578T breast
SF-539 CNS = test system: SF-539 CNS
MDA-MB-231 breast = test system: MDA-MB-231 breast
RXF 393 renal = test system: RXF 393 renal
DU-145 prostate = test system: DU-145 prostate
SR leukemia = test system: SR leukemia
NCI-H226 lung = test system: NCI-H226 lung
SNB-19 CNS = test system: SNB-19 CNS

Structure (SMILES)	GI50 (ACHN renal) [µM]	TGI (ACHN renal) [µM]	GI50 (NCI/ADR-RES ovarian) [µM]	TGI (NCI/ADR-RES ovarian) [µM]	GI50 (HS 578T breast) [µM]	TGI (HS 578T breast) [µM]	GI50 (SF-539 CNS) [µM]	TGI (SF-539 CNS) [µM]	GI50 (MDA-MB-231 breast) [µM]	TGI (MDA-MB-231 breast) [µM]	GI50 (RXF 393 renal) [µM]	TGI (RXF 393 renal) [µM]	GI50 (DU-145 prostate) [µM]	TGI (DU-145 prostate) [µM]	GI50 (SR leukemia) [µM]	TGI (SR leukemia) [µM]	GI50 (NCI-H226 lung) [µM]	TGI (NCI-H226 lung) [µM]	GI50 (SNB-19 CNS) [µM]	TGI (SNB-19 CNS) [µM]
COc1ccc(/C=C(/C(=O)N2CCNCC2)c2cc(OC)c(OC)c(OC)c2)cc1O	49.5	> 100	> 100	> 100	2.42	30	2.22	6.51	4.41	> 100	2.95	> 100	4.1	> 100	0.642	> 100	5.4	> 100	3.91	> 100
COc1ccc(-n2c(N)c(C(=O)NCCN3CCOCC3)c3nc4ccccc4nc32)cc1OC	4.16	> 100	36	> 100	9.27	> 100	7.8	> 100	32.4	> 100	34.1	> 100	9.81	> 100	0.63	22.3	11.4	> 100	10.9	> 100
O=C1NC(=NCc2ccccn2)S/C1=C\c1ccc2ncccc2c1	10.2	> 25	16.9	> 25	6.12	21.4	7.54	> 25	17.8	> 25	8.8	> 25	9.81	> 25	6	24.8	15	> 25	10.7	> 25
CSC(=S)N/N=C(\C)c1ccccn1	0.232	11.8	0.0262	15.7	2.82	36.3	0.366	3.54	0.113	8.98	0.261	3.1	0.465	12.2	< 0.033	6.46	0.335	3.45	0.77	> 72.3
O=C(Nc1ccccc1Cl)c1ccc(NC2=C(Cl)C(=O)N(Cc3ccccc3)C2=O)cc1	37.6	> 100	86.2	> 100	32.7	69.3	45.6	> 100	31.3	91.9	18.4	38.2	> 100	> 100	15.7	41.5	32.5	92.3	> 100	> 100
CCCCCCCCSC1=CC(=O)C(OC)=C(OC)C1=O	1.58	2.98	2.49	7.1	2.64	9.85	2.54	5.9	3.5	8.16	1.61	3.46	7.23	20.5	2.27	> 100	5.4	27.5	13.7	27.3
O=C1c2cccc3cccc(c23)C(=O)N1CCCCOc1ccc(-c2nc3ccc(N4CCOCC4)cc3[nH]2)cc1	15.2	29.2	10.3	> 83.9	2.16	14.7	1.65	3.47	3.27	10.5	0.547	3	3.86	15.8	2.35	> 100	25.6	47.6	7.91	> 48.5
COc1cc2c(/C=C3\C(=O)Nc4ccc(Br)cc43)c(Cl)n(C)c2cc1C	2.26	11.2	0.799	3.41	0.517	3.46	1	4.71	2.63	10.5	1.71	7.33	2.04	4.36	1.42		1.88	6.18	2.57	48.8
NCCOc1ccccn1		> 100		> 100		> 100		> 100		> 100		> 100		> 100		> 100		> 100		> 100
